The values that follow come from PubChem BioAssay (NCI).

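Grown in 96-well plates, cells were treated for 48 hours with each compound at five concentrations. Insufficient inhibition: endpoint recorded as highest concentration tested. At the GI50, growth is halved. TGI: concentration producing complete growth inhibition.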

Some test systems named below: 786-0 renal; HOP-92 NSCLC; HS 578T breast; KM12 colon; NCI-H522 lung; SNB-19 CNS; SR leukemia; T-47D breast; TK-10 renal; UACC-257 melanoma.
Common to all, as to assay: growth of human tumour cells (NCI), 48 h

As for `CCN(CC)CCCNc1nc2ccccc2c2c(=O)c3cc(Cl)ccc3sc12`, the GI50 in the experiment on 786-0 renal was 1.69 µM; with HOP-92 NSCLC, 1.57 µM; in the experiment on HS 578T breast, 3.13 µM; with KM12 colon, 1.79 µM; in the experiment on NCI-H522 lung, 2.02 µM; with SNB-19 CNS, 6.81 µM. Moreover, the GI50 with SR leukemia is 3.75 µM; in the experiment with T-47D breast it was 3.85 µM; in the experiment with TK-10 renal, 2.15 µM; in the experiment with UACC-257 melanoma, 5.43 µM. The TGI with 786-0 renal was found to be 3.27 µM; in the experiment on HOP-92 NSCLC, 6.58 µM; in the experiment on HS 578T breast, 14.8 µM; with KM12 colon, 3.24 µM; in the experiment on NCI-H522 lung, 4.41 µM; with SNB-19 CNS, 20.4 µM. The TGI with SR leukemia was more than 100 µM; in the experiment with T-47D breast, 27.7 µM; in the experiment with TK-10 renal it was 3.97 µM; in the experiment with UACC-257 melanoma, 22.5 µM.
With `CC(C)=CCc1ccc(O)c(=O)cc1C(C)C`, the GI50 with 786-0 renal is 0.816 µM; with HOP-92 NSCLC it was 1.32 µM; in the experiment with HS 578T breast, 48.1 µM; in the experiment on KM12 colon it was 0.641 µM; with NCI-H522 lung it was 1.22 µM; in the experiment with SNB-19 CNS it was 0.735 µM. In addition, the GI50 was 0.465 µM in the experiment with SR leukemia, 3.29 µM in the experiment on T-47D breast, 0.746 µM with TK-10 renal and 1.59 µM in the experiment with UACC-257 melanoma. For the same compound, the TGI with 786-0 renal was 5.4 µM; in the experiment on HOP-92 NSCLC it was 65.3 µM; in the experiment with HS 578T breast, more than 100 µM; in the experiment on KM12 colon it was more than 100 µM; in the experiment with NCI-H522 lung it was 69.9 µM; with SNB-19 CNS, more than 100 µM. The TGI with SR leukemia, in the experiment on T-47D breast, in the experiment on TK-10 renal and in the experiment on UACC-257 melanoma was more than 100 µM each time.
For the compound `CC1CC(C)/C(=N/NC(N)=O)C(C(O)CC2CCC(=O)NC2=O)C1` (stereo not given), the GI50 with 786-0 renal was 3.46 µM; with HOP-92 NSCLC it was 2.31 µM; in the experiment with HS 578T breast, 1.34 µM; in the experiment with KM12 colon, 3.05 µM; in the experiment on NCI-H522 lung, 1.7 µM; in the experiment with SNB-19 CNS, 3.73 µM. Besides, the GI50 is 8.1 µM in the experiment with SR leukemia, 4.41 µM in the experiment with T-47D breast, 1.64 µM in the experiment with TK-10 renal and 3.48 µM with UACC-257 melanoma. In addition, the TGI is more than 100 µM with 786-0 renal; 31.5 µM in the experiment on HOP-92 NSCLC; 8.25 µM with HS 578T breast; 42.4 µM with KM12 colon; 18.1 µM with NCI-H522 lung; more than 100 µM in the experiment with SNB-19 CNS. Also, the TGI in the experiment with SR leukemia is more than 100 µM; in the experiment on T-47D breast, more than 100 µM; in the experiment on TK-10 renal, 10.2 µM; in the experiment on UACC-257 melanoma it was 50.4 µM.
`O[C@@H]1CCCN1Cc1cc2cc3c(cc2c2cc(OCc4ccccc4)ccc12)OCO3`: the GI50 in the experiment with 786-0 renal is 1.89 µM; in the experiment on HOP-92 NSCLC, 1.53 µM; with HS 578T breast it was 2.82 µM; with KM12 colon it was 3.2 µM; in the experiment with NCI-H522 lung, 6.08 µM; in the experiment with SNB-19 CNS, 6.23 µM. Further, the GI50 with SR leukemia was 2.63 µM; in the experiment on T-47D breast, 2.93 µM; with TK-10 renal it was 5.85 µM; in the experiment with UACC-257 melanoma, 2.17 µM. For the same compound, the TGI in the experiment with 786-0 renal was 3.69 µM; in the experiment on HOP-92 NSCLC it was 5.36 µM; with HS 578T breast, 9.07 µM; in the experiment on KM12 colon, 8.95 µM; in the experiment with NCI-H522 lung, 21.5 µM; in the experiment on SNB-19 CNS it was 21.4 µM. Moreover, the TGI with SR leukemia came to 7.08 µM; in the experiment on T-47D breast, 11.7 µM; with TK-10 renal it was 19.8 µM; in the experiment with UACC-257 melanoma, 4.37 µM.
On to `Cc1cc(O)ccc1O`, for which the GI50 with 786-0 renal is 21.2 µM; with HOP-92 NSCLC, 16.3 µM; in the experiment with HS 578T breast, 26.7 µM; in the experiment on KM12 colon, 26.2 µM; in the experiment on NCI-H522 lung it was 3.58 µM; in the experiment on SNB-19 CNS, 41.4 µM. In addition, the GI50 is 19.4 µM with SR leukemia, 18.2 µM with T-47D breast, 19.5 µM in the experiment on TK-10 renal and 43.1 µM with UACC-257 melanoma. Further, the TGI in the experiment with 786-0 renal is 75.8 µM; in the experiment with HOP-92 NSCLC, 31.2 µM; with HS 578T breast, more than 100 µM; with KM12 colon, more than 100 µM; in the experiment on NCI-H522 lung it was 18.8 µM; with SNB-19 CNS, more than 100 µM. Besides, the TGI with SR leukemia is 76.6 µM; with T-47D breast, 60.8 µM; with TK-10 renal it was 35 µM; in the experiment on UACC-257 melanoma, more than 100 µM.
As to `Oc1ccccc1Nc1nc2ccccc2c2occc12`, the GI50 in the experiment on 786-0 renal is 0.399 µM; in the experiment on HOP-92 NSCLC, 5.73 µM; in the experiment with HS 578T breast, 3.9 µM; with KM12 colon, 12.5 µM; in the experiment on NCI-H522 lung, 8.36 µM; in the experiment with SNB-19 CNS it was 7.22 µM. For the same compound, the GI50 is 14.8 µM with SR leukemia, 10.1 µM in the experiment with T-47D breast, 1.9 µM in the experiment on TK-10 renal and 16.1 µM in the experiment with UACC-257 melanoma. The TGI in the experiment with 786-0 renal is 19.2 µM; in the experiment with HOP-92 NSCLC, 19.5 µM; in the experiment on HS 578T breast, 20.8 µM; in the experiment on KM12 colon, 50.7 µM; with NCI-H522 lung it was 24.2 µM; with SNB-19 CNS it was 20.3 µM. Moreover, the TGI was more than 100 µM with SR leukemia, 24.1 µM in the experiment with T-47D breast, 6.65 µM with TK-10 renal and 29.6 µM with UACC-257 melanoma.
As for `O=C1c2cccc3cccc(c23)C(=O)N1CCCCN1CCN(CCCCOc2ccc(-c3nc4ccc(N5CCOCC5)cc4[nH]3)cc2)CC1`, the GI50 with 786-0 renal, with HOP-92 NSCLC, in the experiment with HS 578T breast, in the experiment with KM12 colon, with NCI-H522 lung and in the experiment with SNB-19 CNS was more than 100 µM each time. In addition, the GI50 in the experiment on SR leukemia was 1.68 µM; in the experiment with T-47D breast it was 15.3 µM; in the experiment on TK-10 renal it was more than 100 µM; in the experiment on UACC-257 melanoma, 15 µM. The TGI in the experiment on 786-0 renal, in the experiment on HOP-92 NSCLC, in the experiment with HS 578T breast, with KM12 colon, with NCI-H522 lung and with SNB-19 CNS was more than 100 µM each time. For the same compound, the TGI in the experiment with SR leukemia is 3.9 µM; in the experiment on T-47D breast it was more than 100 µM; in the experiment with TK-10 renal, more than 100 µM; with UACC-257 melanoma, more than 100 µM.
